The test system of the assay is soybean plants transformed with the DMO-encoding polynucleotide construct (Events 1-4). The note with it: early pre-emergence; highest rate 5040 g/ha, 4.5 lb/acre, 9× labeled rate. Here is the method: Transgenic soybean plants were obtained by Agrobacterium transformation of soybean cotyledonary nodes using standard procedures and a binary vector containing the DMO-encoding polynucleotide given as SEQ ID NO:7, which encodes the polypeptide of SEQ ID NO:8. Four transgenic soybean events were prepared and designated Events 1-4. […] Non-transgenic soybean plants were used as controls.
Transgenic and control soybean seeds were planted into 3.5-inch square plastic pots containing Redi-earth™ (Scotts-Siena Horticultural Products Co., Marysville, Ohio). […] The pots were placed on capillary matting in 35 inch×60 inch fiberglass watering trays for overhead and/or sub-irrigation for the duration of the test period so as to maintain optimum soil moisture for plant growth and were fertilized with Osmocote (14-14-14 slow release; Scotts-Siena Horticultural Products Co., Marysville, Ohio) at the rate of 100 gm/cu.ft. to sustain plant growth for the duration of greenhouse trials. […]
Treated plants in greenhouse trials were visually assessed at a particular day after treatment (DAT) for injury on a scale of 0 to 100 percent relative to untreated control plants, with zero representing “no” injury and 100% representing “complete” injury or death. Data were collected and analyzed using suitable statistical methods.

For `COc1c(Cl)ccc(Cl)c1C(=O)O` [dicamba, 3,6-dichloro-o-anisic acid], the “injury to the transgenic plants” value is listed as “less than 10%”.

(Values after patent US8629328B2 (Monsanto Technology LLC, priority 2006, dated 2014).)
